Experimental data taken from patent US6759538B2, “Substituted diphenyl heterocycles useful for treating HCV infection” (priority 2001, dated 2004).

The compounds below were run against HCV replicon (assay: HCV replicon assay (luciferase)). Details: 5-2 Luc replicon cells, 24 hours with compound, luciferase emission; first symbol of Replicon/Western.
Format: cell-based, Hepatitis C virus (HCV)
Source text: In one embodiment, the inhibitory activity of the compounds can be confirmed in a replicon assay that assesses the ability of a test compound to block or inhibit HCV replication in replicon cells. One example of a suitable replicon assay is the liver cell-line Huh 7-based replicon assay described in Lohmann et al., 1999, Science 285:110-113. A specific example of this replicon assay which utilizes luciferase translation is provided in the Examples Section. In one embodiment of this assay, the amount of test compound that yields a 50% reduction in translation as compared to a control cell (IC50) may be determined.
The inhibitory activity of certain exemplary compounds of the invention was confirmed using an HCV replicon assay. The HCV replicon can include such features as the HCV 5′ untranslated region including the HCV IRES, the HCV 3′ untranslated region, selected HCV genes encoding HCV polypeptides, selectable markers, and a reporter gene such as luciferase, GFP, etc. In the assay, actively dividing 5-2 Luc replicon-comprising cells (obtained from Rolf Bartenschlager; see Lohmann et al., 1999, Science 285:110-113) were seeded at a density of between about 5,000 and 7,500 cells/well onto 96 well plates (about 90 μl of cells per well) and incubated at 37° C. and 5% CO2 for 24 hours. Then, the test compound (in a volume of about 10 μl) was added to the wells at various concentrations and the cells were incubated for an additional 24 hours before luciferase assay. The media was aspirated from each well and Bright-Glo (Promega, Madison, Wis.) luciferase assay reagents were added to each well according to the manufacturer's instructions. Briefly, the Bright-Glo reagent was diluted 1:1 with PBS and 100 μl of diluted reagent was added to each well. After 5 min of incubation at room temperature, luciferin emission was quantified with a luminometer. In this assay, the amount of test compound that yielded a 50% reduction in luciferase emission (IC50) was determined.

| Compound | IC50 [µM] |
| --- | --- |
| 2,2-Dichloro-N-[3-[3-[2,6-dimethyl-4-(N-morpholino-2-ethyleneoxy)phenyl]-5-isoxazolyl]phenyl] Acetamide [Compound 23] | ≤ 10 |
| CN(C)C1CCN(c2cccc(Cl)c2-c2cc(-c3cccc(NC(=O)C(Cl)Cl)c3)on2)C1 (racemic) [Compound 132, (±)-2,2-Dichloro-N-[3-[3-[2-chloro-6-(3-dimethylamino-N-pyrrolidino)phenyl]-5-isoxazolyl]-phenyl] Acetamide] | ≤ 10 |
| O=C(Nc1cccc(-c2cc(-c3c(Cl)cccc3Cl)no2)c1)C(Br)Br [Compound 29, 2,2-Dibromo-N-[3-[3-(2,6-dichlorophenyl)-5-isoxazolyl]phenyl] Acetamide] | ≤ 10 |
| Cc1cccc(Cl)c1-c1cc(-c2cccc(NC(=O)C(Cl)Cl)c2)on1 [Compound 31, 2,2-Dichloro-N-[3-[3-(2-chloro-6-methylphenyl)-5-isoxazolyl]phenyl] Acetamide] | ≤ 10 |
| O=C(Nc1cccc(-c2cc(-c3ccccc3C(F)(F)F)no2)c1)C(Cl)Cl [Compound 33, 2,2-Dichloro-N-[3-[3-(2-trifluoromethylphenyl)-5-isoxazolyl]phenyl] Acetamide] | ≤ 10 |
| O=C(Nc1cccc(-c2cc(-c3c(O)cccc3C(F)(F)F)no2)c1)C(Cl)Cl [Compound 35, 2,2-Dichloro-N-[3-[3-(2-hydroxy-6-trifluoromethylphenyl)-5-isoxazolyl]phenyl] Acetamide] | ≤ 10 |
| CC(C)c1cccc(Cl)c1-c1cc(-c2cccc(NC(=O)C(Cl)Cl)c2)on1 [Compound 39, 2,2-Dichloro-N-[3-[3-(2-chloro-6-isopropylphenyl)-5-isoxazolyl]phenyl] Acetamide] | ≤ 10 |
| O=C(Nc1cccc(-c2cc(-c3c(F)cccc3C(F)(F)F)no2)c1)C(Cl)Cl [Compound 41, 2,2-Dichloro-N-[3-[3-(2-fluoro-6-trifluoromethylphenyl)-5-isoxazolyl]phenyl] Acetamide] | ≤ 10 |
| COc1cccc(F)c1-c1cc(-c2cccc(NC(=O)C(Cl)Cl)c2)on1 [Compound 43, 2,2-Dichloro-N-[3-[3-(2-fluoro-6-methoxyphenyl)-5-isoxazolyl]phenyl] Acetamide] | ≤ 10 |
| O=C(Nc1cccc(-c2cc(-c3ccccc3OC(F)F)no2)c1)C(Cl)Cl [Compound 45, 2,2-Dichloro-N-[3-[3-(2-difluoromethoxyphenyl)-5-isoxazolyl]phenyl] Acetamide] | ≤ 10 |
| Cc1cccc(C)c1-c1cc(-c2cccc(NC(=O)C(Cl)Cl)c2)on1 [Compound 47, 2,2-Dichloro-N-[3-[3-(2,6-dimethylphenyl)-5-isoxazolyl]phenyl] Acetamide] | ≤ 10 |
| O=C(Nc1cccc(-c2cc(-c3c(F)cccc3I)no2)c1)C(Cl)Cl [Compound 49, 2,2-Dichloro-N-[3-[3-(2-fluoro-6-iodophenyl)-5-isoxazolyl]phenyl] Acetamide] | ≤ 10 |
| Cc1ccc(Cl)c(-c2cc(-c3cccc(NC(=O)C(Cl)Cl)c3)on2)c1F [Compound 51, 2,2-Dichloro-N-[3-[3-(6-chloro-2-fluoro-3-methylphenyl)-5-isoxazolyl]phenyl] Acetamide] | ≤ 10 |
| O=C(Nc1cccc(-c2cc(-c3c(F)ccc(F)c3Cl)no2)c1)C(Cl)Cl [Compound 53, 2,2-Dichloro-N-[3-[3-(2-chloro-3,6-difluorophenyl)-5-isoxazolyl]phenyl] Acetamide] | ≤ 10 |
| CN(C(=O)C(Cl)Cl)c1cccc(-c2cc(-c3c(Cl)cccc3Cl)no2)c1 [Compound 57, 2,2-Dicbloro-N-[3-[3-(2,6-dichlorophenyl)-5-isoxazolyl]phenyl]-N-methyl Acetamide] | ≤ 10 |
| CCOc1ccccc1-c1cc(-c2cccc(NC(=O)C(Cl)Cl)c2)on1 [Compound 61, 2,2-Dichloro-N-[3-[3-(2-ethoxyphenyl)-5-isoxazolyl]phenyl] Acetamide] | ≤ 10 |
| CC(C)c1ccccc1-c1cc(-c2cccc(NC(=O)C(Cl)Cl)c2)on1 [Compound 63, 2,2-Dichloro-N-[3-[3-(2-isopropylphenyl)-5-isoxazolyl]phenyl] Acetamide] | ≤ 10 |
| CN(C)c1cc(Cl)c(-c2cc(-c3cccc(NC(=O)C(Cl)Cl)c3)on2)c(Cl)c1 [Compound 65, 2,2-Dichloro-N-[3-[3-(2,6-dichloro-4-dimethylaminophenyl)-5-isoxazolyl]phenyl] Acetamide] | ≤ 10 |
| O=C(CCl)Nc1cccc(-c2cc(-c3c(Cl)cccc3Cl)no2)c1 [Compound 67, 2-Chloro-N-[3-[3-(2,6-dichlorophenyl)-5-isoxazolyl]phenyl] Acetamide] | ≤ 10 |
| O=C(Nc1cccc(-c2cc(-c3c(Cl)cc(OCCCN4CCOCC4)cc3Cl)no2)c1)C(Cl)Cl [Compound 73, 2,2-Dichloro-N-[3-[3-[2,6-dichloro-4-(N-morpholinopropyleneoxy)phenyl]-5-isoxazolyl]-phenyl] Acetamide] | ≤ 10 |
| COc1cccc(C(F)(F)F)c1-c1cc(-c2cccc(NC(=O)C(Cl)Cl)c2)on1 [Compound 77, 2,2-Dichloro-N-[3-[3-(2-methoxy-6-trifluoromethylphenyl)-5-isoxazolyl]phenyl] Acetamide] | ≤ 10 |
| O=C(Nc1cccc(-c2cc(-c3c(Cl)cccc3C3CC3)no2)c1)C(Cl)Cl [Compound 79, 2,2-Dichloro-N-[3-[3-(2-chloro-6-cyclopropylphenyl)-5-isoxazolyl]phenyl] Acetamide] | ≤ 10 |
| COc1cccc(Cl)c1-c1cc(-c2cccc(NC(=O)C(Cl)Cl)c2)on1 [Compound 81, 2,2-Dichloro-N-[3-[3-(2-chloro-6-methoxyphenyl)-5-isoxazolyl]phenyl] Acetamide] | ≤ 10 |
| O=C(Nc1cccc(-c2cc(-c3c(O)cccc3Cl)no2)c1)C(Cl)Cl [Compound 83, 2,2-Dichloro-N-[3-[3-(2-chloro-6-hydroxyphenyl)-5-isoxazolyl]phenyl] Acetamide] | ≤ 10 |
| Cc1cccc(C(F)(F)F)c1-c1cc(-c2cccc(NC(=O)C(Cl)Cl)c2)on1 [Compound 85, 2,2-Dichloro-N-[3-[3-(2-methyl-6-trifluoromethylphenyl)-5-isoxazolyl]phenyl] Acetamide] | ≤ 10 |
| O=C(Nc1cccc(-c2noc(-c3c(Cl)cccc3Cl)n2)c1)C(Cl)Cl [Compound 87, 2,2-Dichloro-N-[3-[5-(2,6-dichlorophenyl)-3-(1,2,4-oxadiazolyl)]phenyl] Acetamide] | ≤ 10 |
| O=C(Nc1cccc(-c2cc(-c3c(C4CC4)cccc3C(F)(F)F)no2)c1)C(Cl)Cl [Compound 89, 2,2-Dichloro-N-[3-[3-(2-cyclopropyl-6-trifluoromethylphenyl)-5-isoxazolyl]phenyl] Acetamide] | ≤ 10 |
| COc1cccc(C)c1-c1cc(-c2cccc(NC(=O)C(Cl)Cl)c2)on1 [Compound 91, 2,2-Dichloro-N-[3-[3-(2-methoxy-6-methylphenyl)-5-isoxazolyl]phenyl] Acetamide] | ≤ 10 |
| CC(C)c1cccc(C(F)(F)F)c1-c1cc(-c2cccc(NC(=O)C(Cl)Cl)c2)on1 [Compound 93, 2,2-Dichloro-N-[3-[3-(2-isopropyl-6-trifluoromethylphenyl)-5-isoxazolyl]phenyl] Acetamide] | ≤ 10 |
| O=C(Nc1cccc(-c2cc(-c3c(Cl)cccc3OCCN3CCOCC3)no2)c1)C(Cl)Cl [Compound 95, 2,2-Dichloro-N-[3-[3-[2-chloro-6-(N-morpholino-2-ethyleneoxy)phenyl]-5-isoxazolyl]-phenyl] Acetamide] | ≤ 10 |
